Measured values published in US11814367B2, “Inhibitors of glycogen synthase 1 (GYS1) and methods of use thereof” (Maze Therapeutics, Inc., priority 2021, dated 2023).

Tests used:
[1] = target: hGYS1 enzyme (recombinant hGYS1/GN1 protein) (Homo sapiens (Human), UniProt P13807); experiment: GYS1 coupled enzyme assay (PK/LDH); assay type: biochemical; details: hGYS1/GN1 50 nM, UDP-Glucose 0.8 mM, G6P 1 mM; geometric mean of at least 2 runs
[2] = target: hGYS2 enzyme (recombinant hGYS2/GN1 protein) (Homo sapiens (Human), UniProt P54840); experiment: GYS2 coupled enzyme assay (PK/LDH); assay type: biochemical; details: geometric mean of at least 2 assay runs on separate days, read-out: Avg_IC50
Sequence of hGYS2 enzyme (recombinant hGYS2/GN1 protein) (P54840 whole entry): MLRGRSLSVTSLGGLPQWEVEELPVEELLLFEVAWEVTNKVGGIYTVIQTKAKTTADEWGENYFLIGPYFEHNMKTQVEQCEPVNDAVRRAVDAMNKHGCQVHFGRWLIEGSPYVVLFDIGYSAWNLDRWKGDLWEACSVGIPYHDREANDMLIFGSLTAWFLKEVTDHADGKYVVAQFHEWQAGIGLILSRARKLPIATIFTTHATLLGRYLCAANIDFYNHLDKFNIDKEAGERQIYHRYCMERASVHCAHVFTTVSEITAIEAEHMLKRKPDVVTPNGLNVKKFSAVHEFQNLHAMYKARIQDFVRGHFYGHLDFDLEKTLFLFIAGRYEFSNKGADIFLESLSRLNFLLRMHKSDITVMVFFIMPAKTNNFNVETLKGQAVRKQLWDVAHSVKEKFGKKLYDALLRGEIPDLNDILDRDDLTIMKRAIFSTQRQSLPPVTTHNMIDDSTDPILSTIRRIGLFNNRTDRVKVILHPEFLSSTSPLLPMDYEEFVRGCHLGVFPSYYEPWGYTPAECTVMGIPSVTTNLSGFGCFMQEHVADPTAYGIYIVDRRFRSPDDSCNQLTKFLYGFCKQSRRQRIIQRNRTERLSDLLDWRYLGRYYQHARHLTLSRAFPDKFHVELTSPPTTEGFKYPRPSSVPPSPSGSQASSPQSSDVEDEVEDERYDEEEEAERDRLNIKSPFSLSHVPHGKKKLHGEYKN
Sequence of hGYS2 enzyme (recombinant hGYS2/GN1 protein) (P46976 whole entry partner): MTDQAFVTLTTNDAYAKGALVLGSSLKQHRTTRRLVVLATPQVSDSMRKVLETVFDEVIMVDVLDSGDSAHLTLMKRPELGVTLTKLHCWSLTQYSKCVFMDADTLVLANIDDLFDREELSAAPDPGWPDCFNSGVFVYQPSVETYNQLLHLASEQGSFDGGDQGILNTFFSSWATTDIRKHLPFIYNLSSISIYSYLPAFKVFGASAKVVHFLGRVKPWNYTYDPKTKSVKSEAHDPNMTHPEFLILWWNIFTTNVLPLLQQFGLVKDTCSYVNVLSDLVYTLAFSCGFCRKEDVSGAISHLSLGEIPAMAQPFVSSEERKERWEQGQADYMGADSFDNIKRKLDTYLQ
In short: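 hGYS2/GN1 200 nM; UDP-Glc 2 mM; glycogen 0.2%; G6P 2 mM; PEP 2 mM, NADH 0.6 mM, PK/LDH 20 U/mL. 50 mM Tris pH 7.5, MgCl2, KCl, BSA, TCEP, 2.5% DMSO. Kinetic A340, 10 min. IC50 = geomean of ≥2 runs.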

Sequence of hGYS1 enzyme (recombinant hGYS1/GN1 protein) (P13807 whole entry): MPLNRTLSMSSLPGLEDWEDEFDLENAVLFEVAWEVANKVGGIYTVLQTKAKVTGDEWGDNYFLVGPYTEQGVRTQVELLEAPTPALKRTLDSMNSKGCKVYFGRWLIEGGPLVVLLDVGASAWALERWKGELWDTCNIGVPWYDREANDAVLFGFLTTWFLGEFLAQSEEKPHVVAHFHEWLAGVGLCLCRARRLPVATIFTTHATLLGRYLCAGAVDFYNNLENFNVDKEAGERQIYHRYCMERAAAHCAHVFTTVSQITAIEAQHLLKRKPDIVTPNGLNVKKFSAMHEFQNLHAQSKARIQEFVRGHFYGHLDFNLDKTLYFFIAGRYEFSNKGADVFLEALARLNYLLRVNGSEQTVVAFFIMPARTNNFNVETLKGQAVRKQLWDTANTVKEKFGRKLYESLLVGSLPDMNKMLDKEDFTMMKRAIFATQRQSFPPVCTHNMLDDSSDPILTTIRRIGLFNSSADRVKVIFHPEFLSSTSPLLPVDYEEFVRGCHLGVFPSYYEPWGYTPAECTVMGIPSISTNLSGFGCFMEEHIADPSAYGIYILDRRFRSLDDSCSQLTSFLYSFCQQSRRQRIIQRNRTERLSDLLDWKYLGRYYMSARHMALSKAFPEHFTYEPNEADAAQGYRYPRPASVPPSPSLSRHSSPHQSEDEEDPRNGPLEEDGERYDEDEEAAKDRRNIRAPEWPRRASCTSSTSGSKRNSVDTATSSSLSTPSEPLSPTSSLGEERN
Sequence of hGYS1 enzyme (recombinant hGYS1/GN1 protein) (P46976 whole entry partner): as the sequence (P46976 whole entry partner) above

Structure (SMILES)	IC50 [1] [nM]	IC50 [2] [nM]
CC(=O)N[C@@H](CCC(=O)O)C(=O)N1C[C@H](F)C[C@H]1C(=O)N[C@@H](c1ccccc1)c1ccc(C(C)C)cc1 [Compound 196, (4S)-4-acetamido-5-[(2S,4R)-4-fluoro-2-{[(S)-phenyl[4-(propan-2-yl)phenyl]methyl]carbamoyl}pyrrolidin-1-yl]-5-oxopentanoic acid]	143	> 100000
COc1ccc(CC(=O)N2C[C@H](F)C[C@H]2C(=O)N[C@@H](c2ccccc2)c2ccc(C(C)C)cc2)cc1F [Compound 89, (2S,4R)-4-fluoro-1-[2-(3-fluoro-4-methoxyphenyl)acetyl]-N-[(S)-phenyl[4-(propan-2-yl)phenyl]methyl]pyrrolidine-2-carboxamide]	60	> 100000
CC(C)c1ccc([C@@H](NC(=O)[C@@H]2C[C@@H](F)CN2C(=O)CN2CCCC2=O)c2ccccc2)cc1 [Compound 192, (2S,4R)-4-fluoro-1-[2-(2-oxopyrrolidin-1-yl)acetyl]-N-[(S)-phenyl[4-(propan-2-yl)phenyl]methyl]pyrrolidine-2-carboxamide]	76	> 100000
CC(C)c1ccc([C@@H](NC(=O)[C@@H]2C[C@@H](F)CN2C(=O)Cc2cnn[nH]2)c2ccc(F)cc2)cc1F [Compound 646, (2S,4R)-4-fluoro-N-[(S)-[3-fluoro-4-(propan-2-yl)phenyl](4-fluorophenyl)methyl]-1-[2-(1H-1,2,3-triazol-5-yl)acetyl]pyrrolidine-2-carboxamide]	48	> 100000
CC(=O)N1CCC[C@H]1C(=O)N[C@@H](c1ccccc1)c1ccc(C(C)C)cn1 [Compound 245, (2S)-1-acetyl-N-[(S)-phenyl[5-(propan-2-yl)pyridin-2-yl]methyl]pyrrolidine-2-carboxamide]	1310	> 100000
CC(C)c1ccc([C@@H](NC(=O)[C@@H]2C[C@@H](F)CN2C(=O)Cc2cnnn2C)c2ccccc2)cc1 (stereo in doubt) [Compound 228, (2RS,4R)-4-fluoro-1-[2-(1-methyl-1H-1,2,3-triazol-5-yl)acetyl]-N-[(S)-phenyl[4-(propan-2-yl)phenyl]methyl]pyrrolidine-2-carboxamide]	77	> 100000
O=C(NC(c1ccccc1)c1cc(F)c(C2CC2)c(F)c1)[C@@H]1C[C@@H](F)CN1C(=O)Cc1ncco1 (single isomer, unassigned) [Compound 662]	227	> 100000
O=C(N[C@@H](c1ccccc1)c1ccc(C2CC2)c(F)c1)[C@@H]1C[C@@H](F)CN1C(=O)Cn1cccn1 [Compound 435, (2S,4R)-N-[(S)-(4-cyclopropyl-3-fluorophenyl)(phenyl)methyl]-4-fluoro-1-[2-(1H-pyrazol-1-yl)acetyl]pyrrolidine-2-carboxamide]	149	> 100000
Cc1n[nH]c(C)c1CC(=O)N1C[C@H](F)C[C@H]1C(=O)N[C@@H](c1ccccc1)c1ccc(C2CC2)c(F)c1 [Compound 444, (2S,4R)-N-[(S)-(4-cyclopropyl-3-fluorophenyl)(phenyl)methyl]-1-[2-(3,5-dimethyl-1H-pyrazol-4-yl)acetyl]-4-fluoropyrrolidine-2-carboxamide]	44	> 100000
Cc1cn(CC(=O)N2C[C@H](F)C[C@H]2C(=O)N[C@@H](c2ccccc2)c2ccc(C(C)C)c(F)n2)c(=O)n(C)c1=O (relative stereo) [Compound 777, (2S,4R)-1-[2-(3,5-dimethyl-2,4-dioxo-1,2,3,4-tetrahydropyrimidin-1-yl)acetyl]-4-fluoro-N-[(R*)-[6-fluoro-5-(propan-2-yl)pyridin-2-yl](phenyl)methyl] pyrrolidine-2-carboxamide]	42	> 100000
Cc1ccn(CC(=O)N2C[C@H](F)C[C@H]2C(=O)N[C@@H](c2ccccc2)c2ccc(C(C)C)cc2)n1 [Compound 55, (2S,4R)-4-fluoro-1-[2-(3-methyl-1H-pyrazol-1-yl)acetyl]-N-[(S)-phenyl[4-(propan-2-yl)phenyl]methyl]pyrrolidine-2-carboxamide]	43	> 100000
CC(C)c1ccc([C@@H](NC(=O)[C@@H]2C[C@@H](F)CN2C(=O)[C@@H]2CNC(=O)O2)c2ccccc2)cc1 [Compound 8, (2S,4R)-4-fluoro-1-[(5S)-2-oxo-1,3-oxazolidine-5-carbonyl]-N-[(S)-phenyl[4-(propan-2-yl)phenyl]methyl]pyrrolidine-2-carboxamide]	42	> 100000
CC(=O)N1CCC(C(C)C(=O)N2C[C@H](F)C[C@H]2C(=O)N[C@@H](c2ccccc2)c2ccc(C(C)C)cc2)CC1 (stereo partly drawn) [Compound 180, (2S,4R)-1-[2-(1-acetylpiperidin-4-yl)propanoyl]-4-fluoro-N-[(S)-phenyl[4-(propan-2-yl)phenyl]methyl]pyrrolidine-2-carboxamide]	235	> 100000
CC(C)c1ccc([C@@H](NC(=O)[C@@H]2C[C@@H](F)CN2C(=O)C2CCC(=O)NC2)c2ccccc2)cc1 (stereo partly drawn) [Compound 58, (2S,4R)-4-fluoro-1-(6-oxopiperidine-3-carbonyl)-N-[(S)-phenyl[4-(propan-2-yl)phenyl]methyl]pyrrolidine-2-carboxamide]	145	> 100000

Continued by falling IC50 [1], values first:

IC50 [1] [nM]	IC50 [2] [nM]	Structure (SMILES)
41	> 100000	CC(C)c1ccc([C@@H](NC(=O)[C@@H]2C[C@@H](F)CN2C(=O)CCc2c[nH]c3ccccc23)c2ccccc2)cc1 [Compound 109, (2S,4R)-4-fluoro-1-[3-(1H-indol-3-yl)propanoyl]-N-[(S)-phenyl[4-(propan-2-yl)phenyl]methyl]pyrrolidine-2-carboxamide]
28	> 100000	O=C(N[C@@H](c1ccccc1)c1ccc(C2CC2)c(F)c1)[C@@H]1C[C@@H](F)CN1C(=O)Cc1cccc2ncccc12 [Compound 443, (2S,4R)-N-[(S)-(4-cyclopropyl-3-fluorophenyl)(phenyl)methyl]-4-fluoro-1-[2-(quinolin-5-yl)acetyl]pyrrolidine-2-carboxamide]
24	> 100000	CC(C)c1ccc([C@@H](NC(=O)[C@@H]2C[C@@H](F)CN2C(=O)Cc2ccncn2)c2ccccc2)cc1F [Compound 346, (2S,4R)-4-fluoro-N-[(S)-[3-fluoro-4-(propan-2-yl)phenyl](phenyl)methyl]-1-[2-(pyrimidin-4-yl)acetyl]pyrrolidine-2-carboxamide]
23	> 100000	CC(C)c1ccc([C@@H](NC(=O)[C@@H]2C[C@@H](F)CN2C(=O)Cn2ccncc2=O)c2ccccc2)cc1 [Compound 32, (2S,4R)-4-fluoro-1-[2-(2-oxo-1,2-dihydropyrazin-1-yl)acetyl]-N-[(S)-phenyl[4-(propan-2-yl)phenyl]methyl]pyrrolidine-2-carboxamide]
19	> 100000	CC(=O)Nc1ccc(CC(=O)N2C[C@H](F)C[C@H]2C(=O)N[C@@H](c2ccccc2)c2ccc(C(C)C)cc2)cc1 [Compound 107, (2S,4R)-1-[2-(4-acetamidophenyl)acetyl]-4-fluoro-N-[(S)-phenyl[4-(propan-2-yl)phenyl]methyl]pyrrolidine-2-carboxamide]
10	> 100000	Cc1n[nH]c(C)c1CC(=O)N1C[C@H](F)C[C@H]1C(=O)N[C@@H](c1ccccc1)c1ccc(C(C)C)cc1 [Compound 84, (2S,4R)-1-[2-(3,5-dimethyl-1H-pyrazol-4-yl)acetyl]-4-fluoro-N-[(S)-phenyl[4-(propan-2-yl)phenyl]methyl]pyrrolidine-2-carboxamide]
